Laboratory results: PubChem BioAssay (NCI)
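Briefly, cells in 96-well plates were exposed to five compound concentrations for 48 h, and endpoints were estimated by linear interpolation. GI50: concentration for 50% inhibition of growth. TGI: concentration producing complete growth inhibition.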

Columns and labels:
Test in all cases: NCI anticancer screen, dose series, 48 h
[1] = tested on: A498 renal
[2] = tested on: ACHN renal
[3] = tested on: BT-549 breast
[4] = tested on: CAKI-1 renal
[5] = tested on: CCRF-CEM leukemia
[6] = tested on: COLO 205 colon
[7] = tested on: DU-145 prostate
[8] = tested on: EKVX NSCLC
[9] = tested on: HCC-2998 colon
[10] = tested on: HCT-116 colon
[11] = tested on: HCT-15 colon
[12] = tested on: HL-60(TB) leukemia
[13] = tested on: HOP-92 NSCLC
[14] = tested on: HS 578T breast
[15] = tested on: HT29 colon
[16] = tested on: IGROV1 ovarian
[17] = tested on: K-562 leukemia
[18] = tested on: KM12 colon
[19] = tested on: LOX IMVI melanoma
[20] = tested on: M14 melanoma
[21] = tested on: MALME-3M melanoma
[22] = tested on: MCF7 breast
[23] = tested on: MDA-MB-231 breast
[24] = tested on: MDA-MB-435
[25] = tested on: MOLT-4 leukemia
[26] = tested on: NCI-H226 lung
[27] = tested on: NCI-H23 lung
[28] = tested on: NCI-H460 lung
[29] = tested on: NCI-H522 lung
[30] = tested on: NCI/ADR-RES ovarian
[31] = tested on: OVCAR-3 ovarian
[32] = tested on: OVCAR-4 ovarian
[33] = tested on: OVCAR-5 ovarian
[34] = tested on: PC-3 prostate
[35] = tested on: SF-268 CNS
[36] = tested on: SF-295 CNS
[37] = tested on: SF-539 CNS
[38] = tested on: SK-MEL-28 melanoma
[39] = tested on: SK-MEL-5 melanoma
[40] = tested on: SK-OV-3 ovarian
[41] = tested on: SN12C renal
[42] = tested on: SNB-19 CNS
[43] = tested on: SNB-75 CNS
[44] = tested on: SR leukemia
[45] = tested on: SW-620 colon
[46] = tested on: T-47D breast
[47] = tested on: TK-10 renal
[48] = tested on: U251 CNS
[49] = tested on: UACC-257 melanoma
[50] = tested on: UACC-62 melanoma
[51] = tested on: UO-31 renal

Fc1ccc(C2CC(c3cccc(Nc4ccncc4)c3)=NN2c2ccccc2)cc1 (configuration not stated) was tested, and the GI50 [1] was 0.446 µM, the TGI [1] was 6.92 µM and the GI50 [2] was 1.71 µM. The TGI [2] was 3.11 µM, the GI50 [3] was 1.68 µM and the TGI [3] was 3.46 µM. It also gave a GI50 [4] of 1.6 µM, a TGI [4] of 3.02 µM and a GI50 [5] of 3.22 µM. The TGI [5] was 10.2 µM, the GI50 [6] was 2.35 µM and the TGI [6] was 4.91 µM. The GI50 [7] was 1.98 µM, the TGI [7] was 3.91 µM and the GI50 [8] was 1.99 µM. For the same compound, the TGI [8] was 5.71 µM, the GI50 [9] was 1.63 µM and the TGI [9] was 3 µM. It also gave a GI50 [10] of 1.49 µM, a TGI [10] of 3.12 µM and a GI50 [11] of 1.68 µM. The TGI [11] was 3.49 µM, the GI50 [12] was 2.08 µM and the TGI [12] was 4.49 µM. It also gave a GI50 [13] of 1.33 µM, a TGI [13] of 2.73 µM and a GI50 [14] of 1.81 µM. For the same compound, the TGI [14] was 3.8 µM, the GI50 [15] was 2.13 µM and the TGI [15] was 5.09 µM. For the same compound, the GI50 [16] was 1.8 µM, the TGI [16] was 3.49 µM and the GI50 [17] was 2.42 µM. For the same compound, the TGI [17] was 6.86 µM, the GI50 [18] was 1.63 µM and the TGI [18] was 3.07 µM. For the same compound, the GI50 [19] was 1.66 µM, the TGI [19] was 3.02 µM and the GI50 [20] was 1.87 µM. For the same compound, the TGI [20] was 3.71 µM, the GI50 [21] was 1.6 µM and the TGI [21] was 3.16 µM. For the same compound, the GI50 [22] was 1.74 µM, the TGI [22] was 3.48 µM and the GI50 [23] was 1.57 µM. For the same compound, the TGI [23] was 2.95 µM, the GI50 [24] was 1.63 µM and the TGI [24] was 3.14 µM. For the same compound, the GI50 [25] was 2.47 µM, the TGI [25] was 5.81 µM and the GI50 [26] was 2.48 µM. The TGI [26] was 8.78 µM, the GI50 [27] was 1.75 µM and the TGI [27] was 3.33 µM. It also gave a GI50 [28] of 1.76 µM, a TGI [28] of 3.19 µM and a GI50 [29] of 1.81 µM. The TGI [29] was 3.98 µM, the GI50 [30] was 1.65 µM and the TGI [30] was 3.13 µM. The GI50 [31] was 1.75 µM, the TGI [31] was 3.24 µM and the GI50 [32] was 1.61 µM. For the same compound, the TGI [32] was 3.07 µM, the GI50 [33] was 2.18 µM and the TGI [33] was 5.27 µM. For the same compound, the GI50 [34] was 1.58 µM, the TGI [34] was 3.18 µM and the GI50 [35] was 1.75 µM. The TGI [35] was 3.4 µM, the GI50 [36] was 1.74 µM and the TGI [36] was 3.16 µM. For the same compound, the GI50 [37] was 1.65 µM, the TGI [37] was 3.06 µM and the GI50 [38] was 1.76 µM. It also gave a TGI [38] of 3.35 µM, a GI50 [39] of 1.78 µM and a TGI [39] of 3.22 µM. It also gave a GI50 [40] of 5.7 µM, a TGI [40] of 19.9 µM and a GI50 [41] of 1.71 µM. For the same compound, the TGI [41] was 3.21 µM, the GI50 [42] was 1.61 µM and the TGI [42] was 3.04 µM. The GI50 [43] was 1.29 µM, the TGI [43] was 2.87 µM and the GI50 [44] was 2.17 µM. It also gave a TGI [44] of 5.67 µM, a GI50 [45] of 1.69 µM and a TGI [45] of 3.21 µM. For the same compound, the GI50 [46] was 2.04 µM, the TGI [46] was 4.62 µM and the GI50 [47] was 1.99 µM. It also gave a TGI [47] of 3.75 µM, a GI50 [48] of 1.84 µM and a TGI [48] of 3.64 µM. The GI50 [49] was 2.09 µM, the TGI [49] was 4.31 µM and the GI50 [50] was 1.76 µM. For the same compound, the TGI [50] was 3.24 µM, the GI50 [51] was 1.45 µM and the TGI [51] was 2.86 µM.
